Assay results taken from patent US11013716B2, “Method for providing an increased expression of telomerase, brain-derived neurotrophic factor, stromal cell-derived factor-1, CXC chemokine receptor 4, and/or immune regulatory factor of stem cell” (HAWKING BIOLOGICAL TECHNOLOGY CO., LTD, priority 2013, dated 2021).

Legend:
[1] = test system: SOD1-G93A transgenic mice; assay: BBB scale of the hind limbs of SOD1-G93A transgenic mice; type: in vivo; conditions: 500 mg/kg once daily oral; FIG. 3
Experimental: (§1) This example used the above SOD1-G93A transgenic mice as the object of study to perform in vivo analysis.
After the mice were treated for 30 days, the hind limbs of the mice were examined by BBB scale (Basso, Beattie, and Bresnahan (BBB) Locomotor Rating Scale). […] BBB scale is used to record the efficiency of the treatments.

[2] = test system: SOD1-G93A transgenic mice; assay: Survival of SOD1-G93A transgenic mice (amyotrophic lateral sclerosis model); type: in vivo; conditions: oral
Text: It has been known that about 20% of amyotrophic lateral sclerosis patients were associated with mutations in the gene that encodes Cu/Zn superoxide dismutase enzyme (SOD1), and G93A was the major mutation site.
as §1

[3] = Phase I metabolism assay of n-butylidenephthalide, rat hepatic microsomes, LC-MS/MS; type: in vitro ADME; conditions: Rat hepatic microsomes 0.5 mg/mL, BP 2 mM, NADPH, 37° C., 60 minutes
Text: (§2) It has been known that the medicine metabolic pathway within an organism's liver can be primarily divided into phase I and phase II metabolism. Phase I metabolism occurs mainly by the redox reaction or hydrolysis reaction of medicine, while phase II metabolism occurs mainly by […]. This example simulated the phase I and II metabolism of butylidenephthalide that occur within an organism's liver by respectively mixing butylidenephthalide with hepatic microsomes or cryopreserved hepatocytes in vitro. The products in the reaction solution were analyzed by liquid chromatograph-tandem mass spectrometer (LC-MS/MS) to identify the metabolites and the metabolic profile. The experimental steps were as follows:
(§3) n-Butylidenephthalide (comprising Z-BP 95%+E-BP 5%; purchased from ECHO Chemical) (2 mM) was mixed respectively with K3PO4 buffer solution (100 mM, pH7.4) containing human, rats or dogs hepatic micrsomes (0.5 mg/mL). The mixture was maintained at 37° C. for 10 minutes, and then pre-warmed cofactors (NADPH (2 mM) and MgCl2 (3 mM)) were added thereto and the mixture was incubated at 37° C. for 60 minutes. Thereafter, 3-fold volume of acetonitrile containing 0.1% formic acid was added to the mixture to terminate the reaction. The mixture was centrifuged at 13000 rpm for 5 minutes. The supernatant was then collected and analyzed by LC-MS/MS to identify the metabolites.
(§4) The samples obtained from (1) and (2) were separately dissolved in acetonitrile/0.1% formic acid, centrifuged at 45000 g, 4° C. for 10 minutes. Then, an aliquot (20 μl) of each sample was injected into an autosampler vial (Agilent Technologies, USA) of a LC-MS/MS system to perform LC-MS/MS analysis. The LC-MS/MS system comprises an ABSCIEX 5500 Q TRAP™ system with 1200SL HPLC system (Agilent Technologies, USA), a HPLC column (Symmetry® C18, 3.5 μM, 4.6×75 mm), and a autosampler (Agilent Technologies, USA). A two-solvent system (solvent A: 0.1% formic acid; solvent B: methanol containing 0.1% formic acid) was used to perform HPLC at a flow rate of 0.8 mL/min. The HPLC gradient system was set as follows: 0 to 2 minutes held at 10% solvent B; 2 to 7 minutes with a gradient from 10% to 95% solvent B; 7 to 12 minutes held at 95% solvent B; 12 to 14 minutes with a gradient from 95% to 10% solvent B; 14 to 20 minutes held at 10% solvent B; and the retention time of HPLC analysis is 20 minutes. The mass spectrometry analysis was performed in positive ion electrospray ionization (+ESI) mode at 5.5 kV, 550° C., and N2 (nitrogen) was used as an auxiliary gas. The most intense peaks in the LC-MS/MS spectrum and the mass-shifted peaks in the LC-MS/MS spectrum of each sample as compared to n-butylidenephthalide spectrum were analyzed by LightSight™ Software to determine the metabolites in the samples and identifying the biotransformation pathway and metabolic profile of n-butylidenephthalide in an organism. The results are shown in Table 1, Table 2, FIG. 1A, FIG. 1B and FIG. 1C.

[4] = Phase I metabolism assay of n-butylidenephthalide, dog hepatic microsomes, LC-MS/MS; type: in vitro ADME; conditions: Dog hepatic microsomes 0.5 mg/mL, BP 2 mM, NADPH, 37° C., 60 minutes
Text: as §2, §3, §4

[5] = Phase I metabolism assay of n-butylidenephthalide, human hepatic microsomes, LC-MS/MS; type: in vitro ADME; conditions: Human hepatic microsomes 0.5 mg/mL, BP 2 mM, NADPH, 37° C., 60 minutes
Text: as §2, §3, §4

[6] = test system: dog hepatocytes; assay: Phase II metabolism assay of n-butylidenephthalide, dog hepatocytes, LC-MS/MS; type: in vitro ADME; conditions: Dog cryopreserved hepatocytes, BP 50 μM, 37° C., 6 hours
Text: as §2
(§5) William's E medium containing 5×10^5 thawed human, rat or dog hepatocytes were respectively added into a 12-well culture dish, and the cells were cultured for 6 hours. Then, 0.5 mL of n-butylidenephthalide (comprising Z-BP 95%+E-BP 5%; purchased from ECHO Chemical) (50 μM) was added into the culture dish. After the cells were incubated at 37° C., 95% relative humidity and 5% CO2 for 6 hours, 2 mL of acetonitrile (100%) was added to terminate the reaction. […] The supernatant was then collected, dried, and analyzed by LC-MS/MS to identify the metabolites of n-butylidenephthalide. […]

[7] = test system: telomerase; conditions: previous research; cited from earlier work
[8] = test system: stromal cell-derived factor-1 (SDF1); assay: Gene expression level in ADSCs by RT-PCR: SDF1; type: cell-based, human; conditions: ADSCs, 10, 20 or 50 μg/ml (especially 20 μg/ml), 12 hours; FIG. 5
Experimental: (§6) Human ADSCs were isolated from human adipose tissue by the following steps. Human adipose tissue from clinical research was washed with equal volumes of phosphate-buffered saline (PBS) and minced with fine scissors. Then, the tissue was digested with 0.075% collagenase type I (Sigma-Aldrich Co., St. Louis, Mo., USA) at 37° C. for 30 to 60 minutes, and a Dulbecco's modified Eagle's medium (DMEM)/F-12 (Invitrogen, Carlsbad, Calif., USA) containing 10% fetal bovine serum (FBS, Invitrogen) was added to terminate the digestion. The digested adipose tissue cells were filtered through a 100 μm nylon mesh to remove the cellular debris. The cell suspension was centrifuged for 10 minutes to obtain a pellet and cultured at 37° C., 5% CO2 in a culture media (DMEM/F-12 containing 10% FBS, 100 U/mL penicillin, and 100 μg/mL streptomycin). Following the incubation, the plates were washed with PBS to remove the residual non-adherent red blood cells. […]
(§7) ADSCs (2×10^5 cells/well) were cultured in a 6 well dish in a 37° C. incubator overnight. […] Thereafter, the gene expression levels of brain-derived neurotrophic factor (BDNF), stromal cell-derived factor-1 (SDF1), C-X-C chemokine receptor type 4 (CXCR4), interleukin 6 (IL-6), and interleukin 8 (IL-8) of the ADSCs were determined by RT-PCR. […]

[9] = test system: telomerase; assay: Telomerase expression level of ADSCs (Telomerase PCR ELISA kit); type: cell-based, human; conditions: 100 μM or 250 μM, 24 hours; FIG. 4
Experimental: as §6
The ADSCs were cultured in a 10 cm dish, and treated with valproic acid (VPA) (1 μM or 10 μM) or BP (comprising Z-BP 95%+E-BP 5%; purchased from ECHO Chemical) (100 μM or 250 μM) at different doses for 24 hours. Then, the telomerase expression level of the ADSCs was determined by a Telomerase PCR ELISA kit (Cat. No. 11854666910, Roche). […]

[10] = test system: interleukin 6 (IL-6); assay: Gene expression level in ADSCs by RT-PCR: IL-6; type: cell-based, human; conditions: ADSCs, 10, 20 or 50 μg/ml, 12 hours; FIG. 5
Experimental: as §6, §7

[11] = test system: interleukin 8 (IL-8); assay: Gene expression level in ADSCs by RT-PCR: IL-8; type: cell-based, human; conditions: ADSCs, 10, 20 or 50 μg/ml, 12 hours; FIG. 5
Experimental: as §6, §7

[12] = test system: brain-derived neurotrophic factor (BDNF); assay: Gene expression level in ADSCs by RT-PCR: BDNF; type: cell-based, human; conditions: ADSCs, 10, 20 or 50 μg/ml (especially 20 μg/ml), 12 hours; FIG. 5
Experimental: as §6, §7

[13] = test system: C-X-C chemokine receptor type 4 (CXCR4); assay: Gene expression level in ADSCs by RT-PCR: CXCR4; type: cell-based, human; conditions: ADSCs, 10, 20 or 50 μg/ml (especially 20 μg/ml), 12 hours; FIG. 5
Experimental: as §6, §7

[14] = test system: rat hepatocytes; assay: Phase II metabolism assay of n-butylidenephthalide, rat hepatocytes, LC-MS/MS; type: in vitro ADME; conditions: Rat cryopreserved hepatocytes, BP 50 μM, 37° C., 6 hours
Text: as §2, §5

[15] = test system: human hepatocytes; assay: Phase II metabolism assay of n-butylidenephthalide, human hepatocytes, LC-MS/MS; type: in vitro ADME; conditions: Human cryopreserved hepatocytes, BP 50 μM, 37° C., 6 hours
Text: as §2, §5

[16] = 500 mg/kg-body weight once daily

Compound | Biotransformation pathway (Phase I metabolites of n-butylidenephthalide) [3] | Biotransformation pathway (Phase I metabolites of n-butylidenephthalide) [4] | Biotransformation pathway (Phase I metabolites of n-butylidenephthalide) [5] | further results
CCCC=C1OC(=O)C2=C1CCC=C2 [ligustilide, 3-butylidene-4,5-dihydrophthalide] | – | – | – | Time after which the BBB scale of the hind limbs decreased rapidly [1]: > 170 days; Longevity prolonged as compared to the control group [2, 16]: about 74.8±1.2 days
CCCCC(=O)c1ccccc1C(=O)O [Compound (5)] | Hydrogenation (forming | Hydrogenation (forming | Hydrogenation (forming | –
C/C=C/C=C1\OC(=O)c2c(O[C@@H]3OC(CO)[C@@H](O)[C@H](O)C3O)cccc21 (stereo partly drawn) [Compound (14)] | – | – | – | Biotransformation pathway (Phase II metabolites of n-butylidenephthalide) [6]: Dehydrogenation +
CCCC(CCC)C(=O)O [VPA, valproic acid] | – | – | – | Telomerase activity of ADSCs [7]: could increase the telomerase activity
CCCC=C1OC(=O)c2ccccc21 [BP, n-butylidenephthalide] | – | – | – | Time after which the BBB scale of the hind limbs decreased rapidly [1]: > 135 days; Gene expression level of SDF1 [8]: increased; Telomerase activity (expression level of telomerase) of ADSCs [9]: higher telomerase activity; Gene expression level of IL-6 [10]: increased; Longevity prolonged as compared to the control group ([2]; 250 mg/kg-body weight twice daily): about 91.3±16 days; Longevity prolonged as compared to the control group [2, 16]: about 22.7±2.8 days; Gene expression level of IL-8 [11]: increased; Gene expression level of BDNF [12]: increased; Gene expression level of CXCR4 [13]: increased
CCCCC1(O)OC(=O)c2ccccc21 (stereo not drawn) [Compound (7)] | Hydrogenation (forming | Hydrogenation (forming | Hydrogenation (forming | –
C/C=C/C=C1\OC(=O)c2c1cccc2S(=O)(=O)O [Compound (12)] | – | – | – | Biotransformation pathway (Phase II metabolites of n-butylidenephthalide) [14]: Dehydrogenation +; Biotransformation pathway (Phase II metabolites of n-butylidenephthalide) [15]: Dehydrogenation +

Second part, led by results:

Biotransformation pathway (Phase I metabolites of n-butylidenephthalide) [3] | Biotransformation pathway (Phase I metabolites of n-butylidenephthalide) [4] | Biotransformation pathway (Phase I metabolites of n-butylidenephthalide) [5] | Compound | further results
Oxidation | Oxidation | Oxidation | CC(O)C/C=C1\OC(=O)c2ccccc21 (stereo not drawn) [Compound (4)] | –
Dehydrogenation | Dehydrogenation | Dehydrogenation | C/C=C/C=C1\OC(=O)c2ccccc21 [Compound (2)] | –
Tri-Demethylation | Tri-Demethylation | Tri-Demethylation | C=C1OC(=O)c2ccccc21 [Compound (8)] | –
